Measured values reported in US10336762B2 (priority 2017, dated 2019).
Where two headings read alike, the source gives them in different places.

Columns and labels:
IRAK4 enzyme = IRAK4 enzyme (Homo sapiens (Human), UniProt Q9NWZ3); assay: biochemical; type: biochemical; conditions: IRAK4 enzyme, 500 μM ATP
TNFα = assay: cells; type: cell-based, human; conditions: Homo sapiens, Monocyte, LPS-stimulated human monocytes, read-out: EC50 TNF

IRAK4 enzyme, sequence (Q9NWZ3 whole entry): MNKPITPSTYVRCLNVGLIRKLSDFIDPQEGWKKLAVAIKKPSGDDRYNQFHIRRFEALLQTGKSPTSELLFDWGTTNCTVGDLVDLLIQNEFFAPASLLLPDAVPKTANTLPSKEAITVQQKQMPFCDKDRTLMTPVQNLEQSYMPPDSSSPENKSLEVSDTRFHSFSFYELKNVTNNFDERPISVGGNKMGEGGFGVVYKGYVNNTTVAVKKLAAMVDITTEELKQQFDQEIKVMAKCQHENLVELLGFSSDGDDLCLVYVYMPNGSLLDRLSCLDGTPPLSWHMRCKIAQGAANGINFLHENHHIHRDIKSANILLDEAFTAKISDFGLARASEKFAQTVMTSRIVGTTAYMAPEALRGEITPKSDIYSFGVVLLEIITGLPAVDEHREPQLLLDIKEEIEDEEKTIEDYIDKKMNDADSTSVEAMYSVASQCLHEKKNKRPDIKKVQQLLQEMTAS

Row | Structure (SMILES) | IC50 (IRAK4 enzyme; TR-FRET) | EC50 (TNFα; TNFα by TR-FRET) | IC50 (IRAK4 enzyme; TR-FRET (HTRF)) | EC50 (TNFα; TNFα content)
1 | N#Cc1cnn2c(-c3cc(NC45CCC(O)(CC4)CC5)c(C(=O)NCC(=O)N4CC5(COC5)C4)cn3)ccc2c1 [Example 800, 6-(3-cyanopyrrolo[1,2-b]pyridazin-7-yl)-4-((4-hydroxybicyclo[2.2.2]octan-1-yl)amino)-N-(2-oxo-2-(2-oxa-6-azaspiro[3.3]heptan-6-yl)ethyl)nicotinamide] | 3 nM | 133 nM |  | 
2 | CC(=O)NC[C@@H]1CCCN1c1ccc(Nc2cc(-c3ccc4cc(C#N)cnn34)ncc2C(=O)NC[C@@H](F)C(C)(C)O)cn1 [Example 878, 4-((6-((S)-2-(acetamidomethyl)pyrrolidin-1-yl)pyridin-3-yl)amino)-6-(3-cyanopyrrolo[1,2-b]pyridazin-7-yl)-N-((R)-2-fluoro-3-hydroxy-3-methylbutyl)nicotinamide] | 2 nM | 141 nM |  | 
3 | CCC(=O)c1cccc(Nc2cc(-c3ccc4cc(C#N)cnn34)ncc2C(=O)NC[C@@H](F)C(C)(C)O)c1 [Example 839, (R)-6-(3-cyanopyrrolo[1,2-b]pyridazin-7-yl)-N-(2-fluoro-3-hydroxy-3-methylbutyl)-4-((3-propionylphenyl)amino) nicotinamide] | 1 nM | 307 nM |  | 
4 | Cc1cc(Nc2cc(-c3ccc4cc(C#N)cnn34)ncc2C(=O)NC[C@@H](F)C(C)(C)O)ccc1C(N)=O [Example 581, (R)-4-((4-carbamoyl-3-methylphenyl)amino)-6-(3-cyanopyrrolo[1,2-b]pyridazin-7-yl)-N-(2-fluoro-3-hydroxy-3-methylbutyl)nicotinamide] |  |  | < 1 nM | 114 nM
5 | CC(N)(CCNc1cc(-c2ccc3cc(C#N)cnn23)ncc1C(=O)NC[C@@H](F)C(C)(C)O)C(F)F (stereo partly drawn) [Example 559, 4-((3-amino-4,4-difluoro-3-methylbutyl)amino)-6-(3-cyanopyrrolo[1,2-b]pyridazin-7-yl)-N-((R)-2-fluoro-3-hydroxy-3-methylbutyl)nicotinamide] |  |  | 1 nM | 78 nM
6 | Cn1cc(Nc2cc(-c3ccc4cc(C#N)cnn34)ncc2C(=O)NC[C@@H](F)C(C)(C)O)nn1 [Example 58, (R)-6-(3-cyanopyrrolo[1,2-b]pyridazin-7-yl)-N-(2-fluoro-3-hydroxy-3-methylbutyl)-4-((1-methyl-1H-1,2,3-triazol-4-yl)amino)nicotinamide] | < 1 nM |  |  | 91 nM
7 | CC(C)(O)[C@H](F)CNC(=O)c1cnc(-c2ccc3cc(C#N)cnn23)cc1N[C@H]1C[C@H](CNCC(F)(F)F)C1 [Example 700, 6-(3-cyanopyrrolo[1,2-b]pyridazin-7-yl)-N—((R)-2-fluoro-3-hydroxy-3-methylbutyl)-4-(((1r,3R)-3-(((2,2,2-trifluoroethyl)amino)methyl)cyclobutyl)amino)nicotinamide] |  |  | 2 nM | 151 nM
8 | CC(C)Nc1cc(-c2ccc3cc(C#N)cnn23)ncc1C(=O)NC1CC2(CC(O)C2)C1 (stereo not shown) [Example 149, 6-(3-cyanopyrrolo[1,2-b]pyridazin-7-yl)-N-(6-hydroxyspiro[3.3]heptan-2-yl)-4-(isopropylamino) nicotinamide] | 1 nM |  |  | 148 nM
9 | CNC(=O)c1cnc(-c2ccc3cc(C#N)cnn23)cc1NC12CCC(NC(C)=O)(CC1)CC2 [Example 482, 4-((4-acetamido-bicyclo[2.2.2]octan-1-yl)amino)-6-(3-cyano-pyrrolo[1,2-b]pyridazin-7-yl)-N-methylnicotinamide] |  |  | 1 nM | 48 nM
10 | CC(C)(O)[C@H](F)CNC(=O)c1cnc(-c2ccc3cc(C#N)cnn23)cc1NC12CCC(C(=O)N3CCC3)(CC1)CC2 [Example 408, (R)-4-((4-(azetidine-1-carbonyl)bicyclo[2.2.2]octan-1-yl)amino)-6-(3-cyanopyrrolo[1,2-b]pyridazin-7-yl)-N-(2-fluoro-3-hydroxy-3-methylbutyl)nicotinamide] |  |  | 1 nM | 31 nM
11 | CC(C)Nc1cc(-c2ccc3cc(C#N)cnn23)ncc1C(=O)NCC(F)(F)CNC(=O)OC(C)(C)C [Example 554, tert-butyl (3-(6-(3-cyano-pyrrolo[1,2-b]pyridazin-7-yl)-4-(isopropylamino)nicotinamido)-2,2-difluoropropyl)carbamate] |  |  | 35 nM | 439 nM
12 | CC(C)(O)[C@H](F)CNC(=O)c1cnc(-c2ccc3cc(C#N)cnn23)cc1Nc1cnn(C2COC2)c1 [Example 43, (R)-6-(3-cyanopyrrolo[1,2-b]pyridazin-7-yl)-N-(2-fluoro-3-hydroxy-3-methyl-butyl)-4-((1-(oxetan-3-yl)-1H-pyrazol-4-yl)amino) nicotinamide] | < 1 nM |  |  | 30 nM
13 | CC(=O)N[C@@H]1CC[C@H](Nc2cc(-c3ccc4cc(C#N)cnn34)ncc2C(=O)NC[C@@H](F)C(C)(C)O)C1 [Example 312, 4-(((1S,3R)-3-acetamidocyclopentyl)amino)-6-(3-cyano-pyrrolo[1,2-b]pyridazin-7-yl)-N-((R)-2-fluoro-3-hydroxy-3-methylbutyl) nicotinamide] | 2 nM |  |  | 198 nM
14 | CC(C)Nc1cc(-c2ccc3cc(-c4nnn[nH]4)cnn23)ncc1C(=O)NC[C@@H](F)C(C)(C)O [Example 17, (R)-6-(3-(1H-tetrazol-5-yl)pyrrolo[1,2-b]pyridazin-7-yl)-N-(2-fluoro-3-hydroxy-3-methylbutyl)-4-(isopropylamino)nicotinamide] | 24 nM |  |  | 5200 nM
15 | CC(C)(O)[C@H](F)CNC(=O)c1cnc(-c2ccc3cc(C#N)cnn23)cc1NC[C@@H]1COCCN1 [Example 917, 6-(3-cyanopyrrolo[1,2-b]pyridazin-7-yl)-N-((R)-2-fluoro-3-hydroxy-3-methylbutyl)-4-((((R)-morpholin-3-yl)methyl)amino)nicotinamide] | 1 nM | 72 nM |  | 
16 | CC(C)(O)[C@H](F)CNC(=O)c1cnc(-c2ccc3cc(C#N)cnn23)cc1N[C@H]1CC[C@H](NC(=O)OC2COC2)CC1 [Example 280, oxetan-3-yl ((1R,4r)-4-((2-(3-cyanopyrrolo[1,2-b]pyridazin-7-yl)-5-(((R)-2-fluoro-3-hydroxy-3-methylbutyl)carbamoyl)pyridin-4-yl)amino)cyclo-hexyl)carbamate] | 1 nM |  |  | 55 nM
17 | COC(=O)N[C@H]1C[C@@H](CNC(=O)c2cnc(-c3ccc4cc(C#N)cnn34)cc2NC23CCC(O)(CC2)CC3)C1 [Example 731, methyl ((1s,3s)-3-((6-(3-cyanopyrrolo[1,2-b]pyridazin-7-yl)-4-((4-hydroxybicyclo[2.2.2]octan-1-yl)amino)nicotin-amido)methyl)cyclobutyl) carbamate] |  |  | < 1 nM | 59 nM
18 | CC(C)(O)[C@H](F)CNC(=O)c1cnc(-c2ccc3cc(C#N)cnn23)cc1NCC1(O)CC1 [Example 97, (R)-6-(3-cyanopyrrolo[1,2-b]pyridazin-7-yl)-N-(2-fluoro-3-hydroxy-3-methylbutyl)-4-(((1-hydroxycyclopropyl)methyl)amino)nicotinamide] | 2 nM |  |  | 180 nM
19 | CC(C)(O)[C@H](F)CNC(=O)c1cnc(-c2ccc3cc(C#N)cnn23)cc1Nc1ccc(CN2CC(F)(F)C2)cc1 [Example 205, (R)-6-(3-cyanopyrrolo[1,2-b]pyridazin-7-yl)-4-((4-((3,3-difluoroazetidin-1-yl)methyl)phenyl)amino)-N-(2-fluoro-3-hydroxy-3-methylbutyl) nicotinamide] | 1 nM |  |  | 115 nM
20 | CC(C)(O)[C@H](F)CNC(=O)c1cnc(-c2ccc3cc(C#N)cnn23)cc1NC1CC2CCC(C1)N2 (stereo partly drawn) [Example 14, 4-(((1R,3r,5S)-8-azabicyclo[3.2.1]octan-3-yl)amino)-6-(3-cyanopyrrolo[1,2-b]pyridazin-7-yl)-N-((R)-2-fluoro-3-hydroxy-3-methylbutyl)nicotinamide] | 3 nM |  |  | 626 nM
21 | Cc1nnc(-c2ccc(Nc3cc(-c4ccc5cc(C#N)cnn45)ncc3C(=O)NC[C@@H](F)C(C)(C)O)cc2)[nH]1 [Example 218, (R)-6-(3-cyanopyrrolo[1,2-b]pyridazin-7-yl)-N-(2-fluoro-3-hydroxy-3-methylbutyl)-4-((4-(5-methyl-4H-1,2,4-triazol-3-yl)phenyl)amino) nicotinamide] | < 1 nM |  |  | 41 nM
22 | CC(C)(O)[C@H](F)CNC(=O)c1cnc(-c2ccc3cc(C#N)cnn23)cc1Nc1cncc(C(N)=O)c1 [Example 592, (R)-4-((5-carbamoyl-pyridin-3-yl)amino)-6-(3-cyanopyrrolo[1,2-b]pyridazin-7-yl)-N-(2-fluoro-3-hydroxy-3-methylbutyl) nicotinamide] |  |  | 1 nM | 222 nM
23 | COc1cc(Nc2cc(-c3ccc4cc(C#N)cnn34)ncc2C(=O)NC[C@@H](F)C(C)(C)O)cnc1OC [Example 853, (R)-6-(3-cyanopyrrolo[1,2-b]pyridazin-7-yl)-4-((5,6-dimethoxypyridin-3-yl)amino)-N-(2-fluoro-3-hydroxy-3-methylbutyl) nicotinamide] | 14 nM | 127 nM |  | 
24 | CC(C)(C)NC(=O)c1cnc(-c2ccc3cc(C#N)cnn23)cc1NC12CCC(O)(CC1)CC2 [Example 357, N-(tert-butyl)-6-(3-cyano-pyrrolo[1,2-b]pyridazin-7-yl)-4-((4-hydroxy-bicyclo[2.2.2]octan-1-yl)amino)nicotinamide] | 9 nM |  |  | 413 nM
25 | CC(C)(O)[C@H](F)CNC(=O)c1cnc(-c2ccc3cc(C#N)cnn23)cc1NC1CC2CCC(C1)O2 (stereo partly drawn) [Example 50, 4-(8-oxabicyclo[3.2.1]octan-3-ylamino)-6-(3-cyanopyrrolo[1,2-b]pyridazin-7-yl)-N-((R)-2-fluoro-3-hydroxy-3-methylbutyl) nicotinamide] | 3 nM |  |  | 351 nM
26 | CC(C)(O)[C@H](F)CNC(=O)c1cnc(-c2ccc3cc(C#N)cnn23)cc1N[C@@H]1CCC[C@@H](O)C1 [Example 61, 6-(3-cyanopyrrolo[1,2-b]pyridazin-7-yl)-N-((R)-2-fluoro-3-hydroxy-3-methylbutyl)-4-(((1R,3R)-3-hydroxycyclohexyl)amino) nicotinamide] | < 1 nM |  |  | 89 nM
